The values below come from ChEMBL document CHEMBL2203092, “Clerodane diterpenoids from Croton crassifolius” (J Nat Prod, 2012).

As a reminder, the IC50 is the midpoint of a concentration-inhibition curve.

The test system of the assay is Human alphaherpesvirus 1. The assay is described as follows: Antiviral activity against HSV1 F ATCC VR733 infected in african green monkey Vero cells assessed as reduction of virus-induced cytopathic effect after 3 days. Particulars: Human alphaherpesvirus 1, Strain F ATCC VR 733, Vero, 72 h. Format: functional, organism-based. (Damage to the host cells serves as the signal in cytopathic effect assays.)

Structures are written as SMILES. In brackets after ≈: the same amount, converted by molar mass.

With `C[C@@H]1CC(=O)[C@@H]2[C@@H](C(=O)O)CCC[C@H]2[C@@]12C[C@@H](c1ccoc1)OC2=O`, the half-maximal inhibitory concentration (IC50) was found to be 25 µg/mL (≈ 72.2 µM). For `Nc1nc2c(ncn2COCCO)c(=O)[nH]1` [ACYCLOVIR] the value was 0.2 µg/mL (≈ 0.888 µM); for `COC(=O)[C@@]1(C)CC(=O)C=C2C1=CC[C@@H](C)[C@]2(C)CC(=O)c1ccoc1` [CRASSIFOLIN C], 50 µg/mL (≈ 140 µM); for `COC(=O)[C@]12CCCC3=C1[C@@H](C[C@H](C)[C@@]31C[C@H](c3ccoc3)OC1=O)OC2` [CRASSIFOLIN D], 50 µg/mL (≈ 134 µM). On to `COC(=O)[C@@]1(C)C2=C(CC[C@H]1OC(C)=O)[C@@]1(C[C@@H](c3ccoc3)OC1=O)[C@H](C)CC2` [CRASSIFOLIN F], for which the IC50 amounted to 50 µg/mL (≈ 120 µM). For `COC(=O)[C@]1(C)CCCC2=C1CC[C@@H](C)[C@]21C[C@@H](c2ccoc2)OC1=O` [PENDULIFLAWOROSIN] the value was 50 µg/mL (≈ 139 µM).
